# pIC50: −log10 of the molar value.
# Biological target: TBK1 (Homo sapiens (Human), UniProt Q9UHD2)
# Test: TBK1 low ATP kinase assay (in vitro assay 1)
# Type: biochemical
# Conditions: in vitro assay 1, read-out: TBK1 low ATP kinase assay IC50
# TBK1, sequence (Q9UHD2 whole entry): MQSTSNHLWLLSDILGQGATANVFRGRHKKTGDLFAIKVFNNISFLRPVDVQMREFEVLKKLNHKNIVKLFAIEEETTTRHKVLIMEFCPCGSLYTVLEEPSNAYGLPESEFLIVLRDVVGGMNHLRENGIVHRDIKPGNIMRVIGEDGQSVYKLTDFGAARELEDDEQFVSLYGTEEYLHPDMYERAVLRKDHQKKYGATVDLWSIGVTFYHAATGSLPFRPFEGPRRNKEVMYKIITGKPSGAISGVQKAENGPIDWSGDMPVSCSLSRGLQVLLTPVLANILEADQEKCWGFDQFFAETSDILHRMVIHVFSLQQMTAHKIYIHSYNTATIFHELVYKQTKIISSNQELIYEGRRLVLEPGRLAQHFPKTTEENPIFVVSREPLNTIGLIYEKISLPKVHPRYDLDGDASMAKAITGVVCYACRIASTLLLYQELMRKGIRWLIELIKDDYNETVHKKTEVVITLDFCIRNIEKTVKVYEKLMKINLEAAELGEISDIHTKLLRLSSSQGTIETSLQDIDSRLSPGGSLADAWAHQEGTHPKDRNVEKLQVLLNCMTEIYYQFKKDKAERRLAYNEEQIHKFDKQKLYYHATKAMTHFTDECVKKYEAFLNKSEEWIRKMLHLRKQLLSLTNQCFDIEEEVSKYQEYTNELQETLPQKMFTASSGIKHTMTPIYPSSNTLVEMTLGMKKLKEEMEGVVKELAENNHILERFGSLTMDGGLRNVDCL
row,pIC50,SMILES
1,6.55,"CC(C)(C)OC(=O)N1CCN(Cc2ccnc(Nc3nc4ccc(-c5ccncc5C#N)cc4[nH]3)c2)CC1 [Example 133.01, tert-butyl 4-[(2-{[6-(3-cyanopyridin-4-yl)-1H-benzimidazol-2-yl]amino}pyridin-4-yl)methyl]piperazine-1-carboxylate]"
2,6.85,"N#Cc1cnccc1-c1ccc2nc(Nc3cc(CN4CCN(C(=O)CC(F)(F)F)CC4)ccn3)[nH]c2c1 [Example 133.02, 4-{2-[(4-{[4-(3,3,3-trifluoropropanoyl)piperazin-1-yl]methyl}pyridin-2-yl)amino]-1H-benzimidazol-6-yl}pyridine-3-carbonitrile]"
3,7.24,"CC(C)(C)OC(=O)N1CCN(Cc2ccnc(Nc3nc4ccc(-c5ccnc(N6CCOCC6)c5)cc4[nH]3)c2)CC1 [Example 134.01, tert-butyl 4-{[2-({6-[2-(morpholin-4-yl)pyridin-4-yl]-1H-benzimidazol-2-yl}amino)pyridin-4-yl]methyl}piperazine-1-carboxylate]"
4,7.96,"O=C(CC(F)(F)F)N1CCN(Cc2ccnc(Nc3nc4ccc(-c5ccnc(N6CCOCC6)c5)cc4[nH]3)c2)CC1 [Example 134.02, 3,3,3-trifluoro-1-(4-{[2-({6-[2-(morpholin-4-yl)pyridin-4-yl]-1H-benzimidazol-2-yl}amino)pyridin-4-yl]methyl}piperazin-1-yl)propan-1-one]"
5,7.72,"O=C(C1CC1)N1CCN(Cc2ccnc(Nc3nc4ccc(-c5ccnc(N6CCOCC6)c5)cc4[nH]3)c2)CC1 [Example 134.03, cyclopropyl(4-{[2-({6-[2-(morpholin-4-yl)pyridin-4-yl]-1H-benzimidazol-2-yl}amino)pyridin-4-yl]methyl}piperazin-1-yl)methanone]"
6,7.15,"CN(C)c1cc(-c2ccc3nc(Nc4cc(CN5CCN(C(=O)OC(C)(C)C)CC5)ccn4)[nH]c3c2)ccn1 [Example 135.01, tert-butyl 4-{[2-({6-[2-(dimethylamino)pyridin-4-yl]-1H-benzimidazol-2-yl}amino)pyridin-4-yl]methyl}piperazine-1-carboxylate]"
7,7.52,"CN(C)c1cc(-c2ccc3nc(Nc4cc(CN5CCN(C(=O)C6CC6)CC5)ccn4)[nH]c3c2)ccn1 [Example 135.03, cyclopropyl(4-{[2-({6-[2-(dimethylamino)pyridin-4-yl]-1H-benzimidazol-2-yl}amino)pyridin-4-yl]methyl}piperazin-1-yl)methanone]"
8,7.28,"Cc1cc(-c2ccc3nc(Nc4cc(CN5CCN(C(=O)OC(C)(C)C)CC5)ccn4)[nH]c3c2)cc(C#N)n1 [Example 136.01, tert-butyl 4-[(2-{[6-(2-cyano-6-methylpyridin-4-yl)-1H-benzimidazol-2-yl]amino}pyridin-4-yl)methyl]piperazine-1-carboxylate]"
9,7.42,"Cc1cc(-c2ccc3nc(Nc4cc(CN5CCN(C(=O)CC(F)(F)F)CC5)ccn4)[nH]c3c2)cc(C#N)n1 [Example 136.02, 6-methyl-4-{2-[(4-{[4-(3,3,3-trifluoropropanoyl)piperazin-1-yl]methyl}pyridin-2-yl)amino]-1H-benzimidazol-6-yl}pyridine-2-carbonitrile]"
10,7.68,"Cc1cc(-c2ccc3nc(Nc4cc(CN5CCN(C(=O)C6CC6)CC5)ccn4)[nH]c3c2)cc(C#N)n1 [Example 136.03, 4-{2-[(4-{[4-(cyclopropylcarbonyl)piperazin-1-yl]methyl}pyridin-2-yl)amino]-1H-benzimidazol-6-yl}-6-methylpyridine-2-carbonitrile]"
11,7.89,"CC(C)(C)OC(=O)N1CCN(Cc2ccnc(Nc3nc4ccc(-c5ccnc(F)c5)cc4[nH]3)c2)CC1 [Example 137.01, tert-butyl 4-[(2-{[6-(2-fluoropyridin-4-yl)-1H-benzimidazol-2-yl]amino}pyridin-4-yl)methyl]piperazine-1-carboxylate]"

# The remaining lines, values behind:
row,SMILES,pIC50
1,"COc1c(-c2ccc3nc(Nc4cc(CN5CCN(C(=O)C6CC6)CC5)ccn4)[nH]c3c2)ncnc1N(C)CC1CC1 [Example 110.02, cyclopropyl[4-({2-[(6-{6-[(cyclopropylmethyl)(methyl)amino]-5-methoxypyrimidin-4-yl}-1H-benzimidazol-2-yl)amino]pyridin-4-yl}methyl)piperazin-1-yl]methanone]",7.52
2,"COc1c(-c2ccc3nc(Nc4cc(CN5CCN(C(=O)C6(C(F)(F)F)CC6)CC5)ccn4)[nH]c3c2)ncnc1N(C)CC1CC1 [Example 110.03, [4-({2-[(6-{6-[(cyclopropylmethyl)(methyl)amino]-5-methoxypyrimidin-4-yl}-1H-benzimidazol-2-yl)amino]pyridin-4-yl}methyl)piperazin-1-yl][1-(trifluoromethyl)cyclopropyl]methanone]",7.28
3,"COc1c(-c2ccc3nc(Nc4cc(CN5CCN(C(=O)CC(F)(F)F)CC5)ccn4)[nH]c3c2)ncnc1N(C)CC1CC1 [Example 110.04, 1-[4-({2-[(6-{6-[(cyclopropylmethyl)(methyl)amino]-5-methoxypyrimidin-4-yl}-1H-benzimidazol-2-yl)amino]pyridin-4-yl}methyl)piperazin-1-yl]-3,3,3-trifluoropropan-1-one]",7.21
4,"C[C@H](c1ccnc(Nc2nc3ccc(-c4cc(OCC(F)(F)F)ncn4)cc3[nH]2)c1)N1CCN(C(=O)CC(F)(F)F)CC1 [Example 119.02, 3,3,3-trifluoro-1-(4-{(1R)-1-[2-({6-[6-(2,2,2-trifluoroethoxy)pyrimidin-4-yl]-1H-benzimidazol-2-yl}amino)pyridin-4-yl]ethyl}piperazin-1-yl)propan-1-one]",8.17
5,"O=C(CC(F)(F)F)N1CCN(Cc2ccnc(Nc3nc4ccc(-c5ccn[nH]5)cc4[nH]3)c2)CC1 [Example 124.02, 3,3,3-trifluoro-1-{4-[(2-{[6-(1H-pyrazol-5-yl)-1H-benzimidazol-2-yl]amino}pyridin-4-yl)methyl]piperazin-1-yl}propan-1-one]",7.00
6,"Cc1noc(-c2ccc3nc(Nc4cc(CN5CCN(C(=O)CC(F)(F)F)CC5)c(Br)cn4)[nH]c3c2)n1 [Example 125.02, 1-{4-[(5-bromo-2-{[6-(3-methyl-1,2,4-oxadiazol-5-yl)-1H-benzimidazol-2-yl]amino}pyridin-4-yl)methyl]piperazin-1-yl}-3,3,3-trifluoropropan-1-one]",6.19
7,"O=C(CC(F)(F)F)N1CCN(Cc2ccnc(Nc3nc4ccc(-c5nnc(CC6CCC6)o5)cc4[nH]3)c2)CC1 [Example 126.02, 1-(4-{[2-({6-[5-(cyclobutylmethyl)-1,3,4-oxadiazol-2-yl]-1H-benzimidazol-2-yl}amino)pyridin-4-yl]methyl}piperazin-1-yl)-3,3,3-trifluoropropan-1-one]",8.41
8,"Cc1nccc(-c2ccc3nc(Nc4cc(CN5CCN(C(=O)OC(C)(C)C)CC5)ccn4)[nH]c3c2)c1Cl [Example 130.01, tert-butyl 4-[(2-{[6-(3-chloro-2-methylpyridin-4-yl)-1H-benzimidazol-2-yl]amino}pyridin-4-yl)methyl]piperazine-1-carboxylate]",6.05
9,"Cc1nccc(-c2ccc3nc(Nc4cc(CN5CCN(C(=O)CC(F)(F)F)CC5)ccn4)[nH]c3c2)c1Cl [Example 130.02, 1-{4-[(2-{[6-(3-chloro-2-methylpyridin-4-yl)-1H-benzimidazol-2-yl]amino}pyridin-4-yl)methyl]piperazin-1-yl}-3,3,3-trifluoropropan-1-one]",6.72
10,"Cc1nccc(-c2ccc3nc(Nc4cc(CN5CCN(C(=O)C6CC6)CC5)ccn4)[nH]c3c2)c1Cl [Example 130.03, {4-[(2-{[6-(3-chloro-2-methylpyridin-4-yl)-1H-benzimidazol-2-yl]amino}pyridin-4-yl)methyl]piperazin-1-yl}(cyclopropyl)methanone]",6.60
11,"Cc1cc(-c2ccc3nc(Nc4cc(CN5CCN(C(=O)OC(C)(C)C)CC5)ccn4)[nH]c3c2)c(F)cn1 [Example 131.01, tert-butyl 4-[(2-{[6-(5-fluoro-2-methylpyridin-4-yl)-1H-benzimidazol-2-yl]amino}pyridin-4-yl)methyl]piperazine-1-carboxylate]",6.85
12,"Cc1cc(-c2ccc3nc(Nc4cc(CN5CCN(C(=O)CC(F)(F)F)CC5)ccn4)[nH]c3c2)c(F)cn1 [Example 131.02, 3,3,3-trifluoro-1-{4-[(2-{[6-(5-fluoro-2-methylpyridin-4-yl)-1H-benzimidazol-2-yl]amino}pyridin-4-yl)methyl]piperazin-1-yl}propan-1-one]",7.21
13,"Cc1cc(-c2ccc3nc(Nc4cc(CN5CCN(C(=O)C6CC6)CC5)ccn4)[nH]c3c2)c(F)cn1 [Example 131.03, cyclopropyl{4-[(2-{[6-(5-fluoro-2-methylpyridin-4-yl)-1H-benzimidazol-2-yl]amino}pyridin-4-yl)methyl]piperazin-1-yl}methanone]",7.49
14,"CC(C)(C)OC(=O)N1CCN(Cc2ccnc(Nc3nc4ccc(-c5c(F)cncc5Cl)cc4[nH]3)c2)CC1 [Example 132.01, tert-butyl 4-[(2-{[6-(3-chloro-5-fluoropyridin-4-yl)-1H-benzimidazol-2-yl]amino}pyridin-4-yl)methyl]piperazine-1-carboxylate]",6.74
15,"O=C(CC(F)(F)F)N1CCN(Cc2ccnc(Nc3nc4ccc(-c5c(F)cncc5Cl)cc4[nH]3)c2)CC1 [Example 132.02, 1-{4-[(2-{[6-(3-chloro-5-fluoropyridin-4-yl)-1H-benzimidazol-2-yl]amino}pyridin-4-yl)methyl]piperazin-1-yl}-3,3,3-trifluoropropan-1-one]",6.72
16,"O=C(C1CC1)N1CCN(Cc2ccnc(Nc3nc4ccc(-c5c(F)cncc5Cl)cc4[nH]3)c2)CC1 [Example 132.03, {4-[(2-{[6-(3-chloro-5-fluoropyridin-4-yl)-1H-benzimidazol-2-yl]amino}pyridin-4-yl)methyl]piperazin-1-yl}(cyclopropyl)methanone]",6.59
17,"CN(C)c1cc(-c2ccc3nc(Nc4cc(CN5CCN(C(=O)CC(F)(F)F)CC5)ccn4)[nH]c3c2)ccn1 [Example 135.02, 1-(4-{[2-({6-[2-(dimethylamino)pyridin-4-yl]-1H-benzimidazol-2-yl)amino)pyridin-4-yl]methyl}piperazin-1-yl)-3,3,3-trifluoropropan-1-one]",7.64
